Test results taken from patent US20220017877A1, “BILIRUBIN OXIDASE ACTIVITY IMPROVING METHOD, AND BILIRUBIN OXIDASE PRODUCT” (OZEKI CORPORATION, priority 2018, published 2022).
Read-outs that look alike come from different tables or passages of the source.

Biological target: T1, recombinant BOD (bilirubin oxidase) derived from Myrothecium verrucaria MT-1 (Albifimbria verrucaria, UniProt Q12737)
T1 construct: made in house; host or cells: Aspergillus sp
T1 sequence (Q12737 39-572): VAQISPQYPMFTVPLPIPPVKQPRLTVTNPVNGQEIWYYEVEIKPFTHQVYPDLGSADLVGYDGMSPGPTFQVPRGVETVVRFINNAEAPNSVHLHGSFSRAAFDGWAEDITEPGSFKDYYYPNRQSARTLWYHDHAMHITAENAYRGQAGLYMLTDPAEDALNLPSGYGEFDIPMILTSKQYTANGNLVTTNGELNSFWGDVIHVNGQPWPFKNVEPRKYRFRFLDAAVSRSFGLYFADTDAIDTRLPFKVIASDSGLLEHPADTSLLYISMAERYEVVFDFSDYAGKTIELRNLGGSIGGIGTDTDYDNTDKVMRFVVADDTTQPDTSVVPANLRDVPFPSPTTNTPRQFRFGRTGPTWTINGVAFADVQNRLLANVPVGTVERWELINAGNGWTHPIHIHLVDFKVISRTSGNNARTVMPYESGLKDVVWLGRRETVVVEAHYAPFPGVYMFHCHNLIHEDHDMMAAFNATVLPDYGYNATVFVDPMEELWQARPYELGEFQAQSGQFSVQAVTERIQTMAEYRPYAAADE
Experiment: BOD activity after leaving the BOD solution with an activity improving agent at 5 to 50° C. in a deoxygenated atmosphere (Test Example 2)
Format: biochemical
Conditions: for activity at 20000 µM / increase of BOD activity as compared with that prior to leaving: 20 mM
From the text: In Test Example 1, a BOD gene derived from a Myrothecium verrucaria MT-1 (GenBank accession number: D12579.1) was introduced into an Aspergillus sp., and then a recombinant BOD (hereinafter, also referred to simply as “BOD”) expressed in the Aspergillus sp. was purified by using a well-known technique and then used as the BOD. The BOD gene derived from the Myrothecium verrucaria MT-1 was codon-optimized in accordance with a gene sequence of the Aspergillus sp., and then introduced into the Aspergillus sp. Further, the BOD thus purified was dissolved in a 50 mM glycine-KOH (pH 8.5) buffer so that the concentration of the BOD became 1.0 mg/mL. Then, a resultant solution was used as a BOD enzyme solution.
The enzymatic activity of the BOD was measured as follows. To 1780 μL of a 50 mM potassium phosphate buffer (pH 6.5), 200 μL of a 20 mM ABTS substrate solution was added, so that a mixed solution (1980 μL) was prepared. This mixed solution was incubated for 1 min at 37° C. Thereafter, 20 μL of a solution containing the BOD (specifically, a BOD solution for evaluation, which will be described later) was added to the mixed solution, and a resultant mixed solution (2 mL) was incubated at 37° C. While the mixed solution was incubated, the absorbance of the mixed solution at a wavelength of 436 nm was measured immediately after that addition of the BOD solution for evaluation (at 0 seconds) and thereafter every 20 seconds. On the basis of (i) the absorbance of the mixed solution at a wavelength of 436 nm immediately after the addition of the BOD solution for evaluation and (ii) the absorbance of the mixed solution at a wavelength of 436 nm after a lapse of 1 minute from the addition of the BOD solution for evaluation, calculation was carried out for obtaining an increase rate per minute of the absorbance of the mixed solution at a wavelength of 436 nm after the addition of the BOD solution for evaluation. The BOD activity (unit) in the BOD solution for evaluation was calculated from the increase rate. In the present specification, the amount of enzyme for oxidizing 1 μmol of ABTS per minute was defined as one unit.
The following describes a specific test method in Test Example 2. A BOD solution containing an activity improving agent was prepared as in Test Example 1. Further, another BOD solution which contained no activity improving agent (to which no activity improving agent was added) was prepared and used as a control. In Test Example 2, L-ascorbic acid or uric acid was used as the activity improving agent. Moreover, the final concentration of L-ascorbic acid in the BOD solution was set to 4 mM, and the final concentration of uric acid in the BOD solution was set to 20 mM. In addition, in Test Example 2, the concentration of the BOD in the BOD enzyme solution was set to 3.0 mg/mL.
Each of the above BOD solutions and a deoxygenating agent (Anaero Pack-Kenki manufactured by Mitsubishi Gas Chemical Company, Inc.) were included in one container (pouch) which was not permeable to oxygen. Then, the container was sealed, so that a BOD container was prepared. The BOD container was left at room temperature (approximately 25° C.) for approximately 2 hours, so that an inner atmosphere of the container became the deoxygenated atmosphere. Thereafter, the BOD container was left in a thermostatic chamber set at 5° C., 10° C., 20° C., 30° C., 40° C., or 50° C. for a certain period of time. Here, (a) the BOD solution without any additive was left for 1 day, 3 days, 7 days, 14 days, or 29 days, (b) the BOD solution containing L-ascorbic acid was left for 1 day, 3 days, 7 days, or 14 days, and (c) the BOD solution containing uric acid was left for 1 day, 3 days, 8 days, 14 days, or 28 days. Three samples (BOD containers) were prepared for each condition. After leaving the BOD containers under the above conditions, the BOD solution was collected from each of the BOD containers and used as a BOD solution for evaluation. […]

O=c1[nH]c(=O)c2[nH]c(=O)[nH]c2[nH]1 [Uric acid, uric acid]
activity at 20000 µM (5° C., Day 0, read-out: Activity (%) Day 0): 100%
activity at 20000 µM (5° C., Day 1, read-out: Activity (%) Day 1): 116%
activity at 20000 µM (5° C., Day 3, read-out: Activity (%) Day 3): 113%
activity at 20000 µM (5° C., Day 8, read-out: Activity (%) Day 8): 140%
activity at 20000 µM (5° C., Day 14, read-out: Activity (%) Day 14): 137%
activity at 20000 µM (5° C., Day 28, read-out: Activity (%) Day 28): 144%
activity at 20000 µM (10° C., Day 0, read-out: Activity (%) Day 0): 100%
activity at 20000 µM (10° C., Day 1, read-out: Activity (%) Day 1): 123%
activity at 20000 µM (10° C., Day 3, read-out: Activity (%) Day 3): 123%
activity at 20000 µM (10° C., Day 8, read-out: Activity (%) Day 8): 159%
activity at 20000 µM (10° C., Day 14, read-out: Activity (%) Day 14): 144%
activity at 20000 µM (10° C., Day 28, read-out: Activity (%) Day 28): 169%
activity at 20000 µM (20° C., Day 0, read-out: Activity (%) Day 0): 100%
activity at 20000 µM (20° C., Day 1, read-out: Activity (%) Day 1): 134%
activity at 20000 µM (20° C., Day 3, read-out: Activity (%) Day 3): 137%
activity at 20000 µM (20° C., Day 8, read-out: Activity (%) Day 8): 179%
activity at 20000 µM (20° C., Day 14, read-out: Activity (%) Day 14): 173%
activity at 20000 µM (20° C., Day 28, read-out: Activity (%) Day 28): 206%
activity at 20000 µM (30° C., Day 0, read-out: Activity (%) Day 0): 100%
activity at 20000 µM (30° C., Day 1, read-out: Activity (%) Day 1): 144%
activity at 20000 µM (30° C., Day 3, read-out: Activity (%) Day 3): 181%
activity at 20000 µM (30° C., Day 8, read-out: Activity (%) Day 8): 202%
activity at 20000 µM (30° C., Day 14, read-out: Activity (%) Day 14): 212%
activity at 20000 µM (30° C., Day 28, read-out: Activity (%) Day 28): 215%
activity at 20000 µM (40° C., Day 0, read-out: Activity (%) Day 0): 100%
activity at 20000 µM (40° C., Day 1, read-out: Activity (%) Day 1): 176%
activity at 20000 µM (40° C., Day 3, read-out: Activity (%) Day 3): 206%
activity at 20000 µM (40° C., Day 8, read-out: Activity (%) Day 8): 216%
activity at 20000 µM (40° C., Day 14, read-out: Activity (%) Day 14): 194%
activity at 20000 µM (40° C., Day 28, read-out: Activity (%) Day 28): 217%
activity at 20000 µM (50° C., Day 0, read-out: Activity (%) Day 0): 100%
activity at 20000 µM (50° C., Day 1, read-out: Activity (%) Day 1): 210%
activity at 20000 µM (50° C., Day 3, read-out: Activity (%) Day 3): 196%
activity at 20000 µM (50° C., Day 8, read-out: Activity (%) Day 8): 175%
activity at 20000 µM (50° C., Day 14, read-out: Activity (%) Day 14): 195%
activity at 20000 µM (50° C., Day 28, read-out: Activity (%) Day 28): 174%
increase of BOD activity as compared with that prior to leaving (eight days at 20° C.): approximately 1.8 times
increase of BOD activity as compared with that prior to leaving (three days at 30° C.): approximately 1.8 times
BOD activity increase at 5° C. compared with not lower than 10° C. (BOD containers left at 5° C.): not found to be increased to an extend that was achieved
